Measurements reported in PMC11413503, “SCR‐7952, a highly selective MAT2A inhibitor, demonstrates synergistic antitumor activities in combination with the S‐adenosylmethionine‐competitive or the methylthioadenosine‐cooperative protein arginine methyltransferase 5 inhibitors in methylthioadenosine phosphorylase‐deleted tumors” (MedComm, 2024).

Legend:
ADRB1 = ADRB1 (Homo sapiens, UniProt P08588); experiment: Mini-profiling panel, GPCR; format: cell-based; conditions: GPCR Targets
GR = GR (Homo sapiens, UniProt P04150); experiment: Mini-profiling panel, nuclear hormone receptor; format: cell-based; conditions: NHR Targets
Sequence of GR (P04150 whole entry): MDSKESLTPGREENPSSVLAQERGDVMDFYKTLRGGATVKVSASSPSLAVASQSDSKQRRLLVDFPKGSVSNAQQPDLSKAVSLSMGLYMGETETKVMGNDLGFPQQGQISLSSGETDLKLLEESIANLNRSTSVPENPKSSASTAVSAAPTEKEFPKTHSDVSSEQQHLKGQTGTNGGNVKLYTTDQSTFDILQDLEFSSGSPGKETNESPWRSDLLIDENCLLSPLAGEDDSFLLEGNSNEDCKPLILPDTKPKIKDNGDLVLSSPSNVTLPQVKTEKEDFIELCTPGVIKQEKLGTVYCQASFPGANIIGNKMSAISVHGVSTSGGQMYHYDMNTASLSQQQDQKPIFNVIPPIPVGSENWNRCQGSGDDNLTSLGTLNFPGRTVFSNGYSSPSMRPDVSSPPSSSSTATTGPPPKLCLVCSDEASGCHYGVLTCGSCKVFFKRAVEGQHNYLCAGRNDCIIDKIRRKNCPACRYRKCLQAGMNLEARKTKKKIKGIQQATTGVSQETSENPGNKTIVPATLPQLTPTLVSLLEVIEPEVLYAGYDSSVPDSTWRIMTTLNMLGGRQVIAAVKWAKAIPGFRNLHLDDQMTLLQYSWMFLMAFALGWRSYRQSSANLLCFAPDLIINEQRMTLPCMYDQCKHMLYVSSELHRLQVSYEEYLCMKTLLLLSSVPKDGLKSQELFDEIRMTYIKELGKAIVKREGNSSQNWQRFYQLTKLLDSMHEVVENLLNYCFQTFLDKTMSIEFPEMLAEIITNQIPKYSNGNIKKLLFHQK

A549 = experiment: Proliferation assay (CellTiter-Glo); format: cell-based; conditions: Homo sapiens, A549, 144 h; MTAP-deleted, 6-day; read-out: IC50, anti-proliferation A549
Protocol: (§1) HCT116 colon carcinoma parental (WT) cells with MTAP ^−/− isogenic clone were established by KYinno Biotechnology Co., Ltd. (Beijing, China). A549, MIA PaCa‐2, and WI‐38 cell lines were obtained from ATCC. NCI‐H838 was obtained from Cobioer Biosciences. HCT116 WT and KO MTAP cells were cultured in McCoy's 5A media containing 10% FBS. A549 cells were cultured in DMEM media containing 10% FBS. MIA PaCa‐2 cells were cultured in DMEM media containing 10% FBS and 2.5% horse serum. NCI‐H838 cells were cultured in PRMI 1640 media containing 10% FBS. WI‐38 cells were cultured in EMEM media containing 10% FBS.
(§2) Cells were plated in 96‐well cell culture plates and allowed to attach overnight at 37°C in 5% CO2. Compounds diluted in DMSO were added to cells in a dose–response format for 6 days. The final concentration of DMSO was 0.1% in media. Cell proliferation was measured using CellTiter‐Glo Cell Viability Assay (Promega). The IC50 values were calculated using the GraphPad Prism 9. Drug combination effects were analyzed using Combenefit software.[45]

HCT116 MTAP−/− cells = experiment: Proliferation assay (CellTiter-Glo); format: cell-based
Protocol: as §1, §2

MIA PaCa-2 = experiment: Proliferation assay (CellTiter-Glo); format: cell-based; conditions: Homo sapiens, MIA PaCa-2, 144 h; MTAP-deleted, 6-day; read-out: IC50, anti-proliferation MIA PaCa-2
Protocol: as §1, §2

NCI-H838 = experiment: Proliferation assay (CellTiter-Glo); format: cell-based; conditions: Homo sapiens, NCI-H838, 144 h; MTAP-deleted, 6-day; read-out: IC50, anti-proliferation NCI-H838
Protocol: as §1, §2

[1] = test system: WI-38 (human fetal lung fibroblast cells); experiment: Proliferation assay (CellTiter-Glo); format: cell-based; conditions: MTAP WT; read-out: IC50, anti-proliferation WI-38
Protocol: as §1, §2

HCT116 WT cells = experiment: Proliferation assay (CellTiter-Glo); format: cell-based; conditions: Homo sapiens, HCT-116, 144 h; 6-day treatment; read-out: IC50, anti-proliferation HCT116 WT
Protocol: as §1, §2

SDMA = experiment: Tumor SDMA levels in combination xenograft study; format: in vivo, mice; conditions: SCR-7952 0.3 mg/kg alone
MAT2A = molecular target: T1, MAT2A (Homo sapiens, UniProt P31153); experiment: MAT2A enzymatic activity, biochemical assay (phosphate release)
T1 construct: purchased Pharmaron 210405‐HWR‐20210429
T1 sequence (P31153 whole entry): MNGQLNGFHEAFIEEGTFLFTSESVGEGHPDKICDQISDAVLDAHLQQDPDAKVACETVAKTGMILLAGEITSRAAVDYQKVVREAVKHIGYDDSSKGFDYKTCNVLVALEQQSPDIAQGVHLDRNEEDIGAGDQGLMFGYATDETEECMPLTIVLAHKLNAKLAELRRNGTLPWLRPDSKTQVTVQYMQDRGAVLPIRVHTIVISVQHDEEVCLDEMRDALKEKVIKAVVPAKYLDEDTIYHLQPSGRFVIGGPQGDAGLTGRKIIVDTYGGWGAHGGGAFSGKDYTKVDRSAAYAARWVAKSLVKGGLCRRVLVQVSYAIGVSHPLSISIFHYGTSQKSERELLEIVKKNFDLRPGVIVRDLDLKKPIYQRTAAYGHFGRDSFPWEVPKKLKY
Protocol: The test compound was prepared in dimethyl sulfoxide (DMSO). […] Then, 40 µL of enzyme dilution was added and the mixture was incubated for 120 min at room temperature. The enzymatic assay was initiated by adding 40 µL of substrate mix (a final dose of 400 µM ATP and a final dose of 200 µM L‐methionine in assay buffer), and the mixture was incubated for a further 90 min at room temperature. The liberated phosphate released by the enzyme in stoichiometric amounts by the production of SAM was measured using the Phosphate Assay Kit—PiColorLock™ (Abcam, UK). Velocity curves were fit to the standard Michaelis‐Menten equation to yield V max and K m.

ADRB2 = ADRB2 (Homo sapiens, UniProt P07550); experiment: Mini-profiling panel, GPCR; format: cell-based; conditions: GPCR Targets
HRH2 = HRH2 (Homo sapiens, UniProt P25021); experiment: Mini-profiling panel, GPCR; format: cell-based; conditions: GPCR Targets
Sequence of HRH2 (P25021 whole entry, species assumed): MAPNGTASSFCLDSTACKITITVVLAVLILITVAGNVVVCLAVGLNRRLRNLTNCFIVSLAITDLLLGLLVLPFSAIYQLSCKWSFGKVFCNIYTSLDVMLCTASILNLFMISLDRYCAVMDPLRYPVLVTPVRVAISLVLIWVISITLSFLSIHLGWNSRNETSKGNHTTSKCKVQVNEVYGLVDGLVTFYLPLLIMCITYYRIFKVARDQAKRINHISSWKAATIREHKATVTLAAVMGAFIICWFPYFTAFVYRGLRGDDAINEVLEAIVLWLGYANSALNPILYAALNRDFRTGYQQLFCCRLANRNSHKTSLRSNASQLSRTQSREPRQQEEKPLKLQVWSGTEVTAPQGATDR

[2] = Plasma pharmacokinetics after multiple administration in xenograft mice; format: in vivo; conditions: SCR-7952 1.0 mg/kg
ADRA1A = ADRA1A (Homo sapiens, UniProt P35348); experiment: Mini-profiling panel, GPCR; format: cell-based
Protocol: (§3) Further insight into selectivity was evaluated in a functional panel of 47 representative targets closely related to human life activities, including G protein‐coupled receptors, transporters, ion channels, kinases, nuclear hormone receptor targets, and nonkinase enzymes (Table S3).

ADRA2A = ADRA2A (Homo sapiens, UniProt P08913); experiment: Mini-profiling panel, GPCR; format: cell-based
Sequence of ADRA2A (P08913 whole entry, species assumed): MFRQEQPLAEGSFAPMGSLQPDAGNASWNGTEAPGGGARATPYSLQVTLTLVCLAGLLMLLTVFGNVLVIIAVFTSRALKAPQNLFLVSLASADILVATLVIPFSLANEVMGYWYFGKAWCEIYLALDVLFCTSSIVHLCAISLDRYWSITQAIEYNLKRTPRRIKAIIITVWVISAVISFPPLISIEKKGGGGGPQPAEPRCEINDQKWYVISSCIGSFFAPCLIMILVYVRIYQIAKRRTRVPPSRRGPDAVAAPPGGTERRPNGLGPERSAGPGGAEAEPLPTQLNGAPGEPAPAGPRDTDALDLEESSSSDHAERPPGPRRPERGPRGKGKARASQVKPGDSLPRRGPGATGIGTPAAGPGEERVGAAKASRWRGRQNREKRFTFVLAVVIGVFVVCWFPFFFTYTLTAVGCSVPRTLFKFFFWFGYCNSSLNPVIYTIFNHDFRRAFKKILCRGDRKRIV
Protocol: as §3

HTR2A = HTR2A (Homo sapiens, UniProt P28223); experiment: Mini-profiling panel, GPCR; format: cell-based
Sequence of HTR2A (P28223 whole entry): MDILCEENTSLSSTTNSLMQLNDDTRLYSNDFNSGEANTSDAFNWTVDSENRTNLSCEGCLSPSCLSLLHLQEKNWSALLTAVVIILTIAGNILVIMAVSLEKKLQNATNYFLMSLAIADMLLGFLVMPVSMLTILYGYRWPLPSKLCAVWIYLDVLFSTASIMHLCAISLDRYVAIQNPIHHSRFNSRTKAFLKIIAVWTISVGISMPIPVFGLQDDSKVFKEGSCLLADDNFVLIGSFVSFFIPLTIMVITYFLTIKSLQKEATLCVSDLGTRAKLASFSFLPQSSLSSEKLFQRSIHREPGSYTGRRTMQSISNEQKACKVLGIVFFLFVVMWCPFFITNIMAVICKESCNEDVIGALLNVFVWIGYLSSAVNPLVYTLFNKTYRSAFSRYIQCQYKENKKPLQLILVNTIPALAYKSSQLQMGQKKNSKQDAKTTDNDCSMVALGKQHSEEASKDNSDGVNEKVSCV
Protocol: as §3

OPRM1 = OPRM1 (Homo sapiens, UniProt P35372); experiment: Mini-profiling panel, GPCR; format: cell-based
Sequence of OPRM1 (P35372 whole entry, species assumed): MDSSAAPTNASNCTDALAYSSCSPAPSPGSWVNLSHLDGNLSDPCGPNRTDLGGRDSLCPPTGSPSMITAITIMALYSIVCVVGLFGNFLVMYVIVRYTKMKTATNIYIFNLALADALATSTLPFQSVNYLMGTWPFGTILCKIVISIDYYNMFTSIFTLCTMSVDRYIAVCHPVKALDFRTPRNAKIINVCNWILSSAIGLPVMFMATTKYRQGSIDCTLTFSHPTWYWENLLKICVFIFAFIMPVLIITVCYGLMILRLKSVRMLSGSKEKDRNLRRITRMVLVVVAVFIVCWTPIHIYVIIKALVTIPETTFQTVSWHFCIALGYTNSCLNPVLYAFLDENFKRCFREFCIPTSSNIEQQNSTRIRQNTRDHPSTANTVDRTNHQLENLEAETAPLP
Protocol: as §3

HTR2B = HTR2B (Homo sapiens, UniProt P41595); experiment: Mini-profiling panel, GPCR; format: cell-based
Sequence of HTR2B (P41595 whole entry, species assumed): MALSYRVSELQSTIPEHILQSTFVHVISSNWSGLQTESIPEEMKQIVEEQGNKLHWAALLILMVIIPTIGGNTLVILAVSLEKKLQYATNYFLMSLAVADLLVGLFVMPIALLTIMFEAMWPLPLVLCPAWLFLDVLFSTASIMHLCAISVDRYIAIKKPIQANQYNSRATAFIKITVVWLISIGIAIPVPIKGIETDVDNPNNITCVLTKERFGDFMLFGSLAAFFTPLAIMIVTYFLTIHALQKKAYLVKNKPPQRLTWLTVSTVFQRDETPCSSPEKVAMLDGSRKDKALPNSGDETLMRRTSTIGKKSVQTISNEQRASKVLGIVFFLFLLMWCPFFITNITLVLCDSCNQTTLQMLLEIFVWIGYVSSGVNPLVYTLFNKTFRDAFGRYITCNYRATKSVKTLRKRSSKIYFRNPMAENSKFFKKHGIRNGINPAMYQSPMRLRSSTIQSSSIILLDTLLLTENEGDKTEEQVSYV
Protocol: as §3

DAT = DAT (Homo sapiens, UniProt Q01959); experiment: Mini-profiling panel, transporter; format: cell-based
Protocol: as §3

SERT = SERT (Homo sapiens, UniProt P31645); experiment: Mini-profiling panel, transporter; format: cell-based
Protocol: as §3

NET = NET (Homo sapiens, UniProt P23975); experiment: Mini-profiling panel, transporter; format: cell-based
Protocol: as §3

ADORA2A = ADORA2A (Homo sapiens, UniProt P29274); experiment: Mini-profiling panel, GPCR; format: cell-based; conditions: GPCR Targets
Sequence of ADORA2A (P29274 whole entry, species assumed): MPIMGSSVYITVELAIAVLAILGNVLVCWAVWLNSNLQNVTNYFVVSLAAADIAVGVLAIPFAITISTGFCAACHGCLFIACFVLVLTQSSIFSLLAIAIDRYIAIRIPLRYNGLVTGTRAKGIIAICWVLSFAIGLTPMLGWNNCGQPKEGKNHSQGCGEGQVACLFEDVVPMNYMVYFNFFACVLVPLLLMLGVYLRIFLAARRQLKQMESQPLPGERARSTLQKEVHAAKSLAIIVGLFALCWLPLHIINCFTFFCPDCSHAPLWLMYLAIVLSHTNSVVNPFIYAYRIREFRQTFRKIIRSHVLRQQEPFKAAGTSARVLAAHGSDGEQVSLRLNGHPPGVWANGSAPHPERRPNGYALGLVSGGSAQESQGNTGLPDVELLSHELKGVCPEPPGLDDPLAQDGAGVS

AR = AR (Homo sapiens, UniProt P10275); experiment: Mini-profiling panel, nuclear hormone receptor; format: cell-based
Sequence of AR (P10275 whole entry): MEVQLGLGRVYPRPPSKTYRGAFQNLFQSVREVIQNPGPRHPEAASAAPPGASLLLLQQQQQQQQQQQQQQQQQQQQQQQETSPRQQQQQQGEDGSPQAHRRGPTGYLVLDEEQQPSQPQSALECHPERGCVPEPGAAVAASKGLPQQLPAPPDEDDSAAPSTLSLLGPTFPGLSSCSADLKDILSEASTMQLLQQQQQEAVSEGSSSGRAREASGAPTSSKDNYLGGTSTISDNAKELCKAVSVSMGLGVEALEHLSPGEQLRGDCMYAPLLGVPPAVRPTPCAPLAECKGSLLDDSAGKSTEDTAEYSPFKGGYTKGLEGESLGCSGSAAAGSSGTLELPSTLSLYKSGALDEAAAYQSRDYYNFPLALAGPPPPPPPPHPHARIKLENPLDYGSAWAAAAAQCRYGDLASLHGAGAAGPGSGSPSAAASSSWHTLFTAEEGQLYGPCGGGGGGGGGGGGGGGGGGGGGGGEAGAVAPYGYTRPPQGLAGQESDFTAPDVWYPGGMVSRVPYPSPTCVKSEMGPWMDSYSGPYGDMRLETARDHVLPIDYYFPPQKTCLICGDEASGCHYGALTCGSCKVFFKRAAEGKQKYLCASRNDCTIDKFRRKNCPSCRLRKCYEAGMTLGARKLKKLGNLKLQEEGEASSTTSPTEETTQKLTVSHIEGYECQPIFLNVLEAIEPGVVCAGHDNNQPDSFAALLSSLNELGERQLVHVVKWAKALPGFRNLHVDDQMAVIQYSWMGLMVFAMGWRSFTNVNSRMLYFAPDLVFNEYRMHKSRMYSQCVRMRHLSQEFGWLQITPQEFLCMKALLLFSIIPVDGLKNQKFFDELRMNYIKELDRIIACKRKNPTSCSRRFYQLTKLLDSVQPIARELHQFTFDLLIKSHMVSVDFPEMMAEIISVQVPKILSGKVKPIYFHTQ
Protocol: as §3

Which EC50 (ADRB1; read-out: ADRB1 Agonism EC50) does the source give for `Cn1cnc2c(=O)n(-c3cccnc3C3CC3)c3cc(Cl)ccc3c21` [SCR‐7952, 7‐chloro‐5‐(2‐cyclopropylpyridin‐3‐yl)‐1‐methyl‐1,5‐dihydro‐4H‐imidazo[4,5‐c]quinolin‐4‐one] here?
The EC50 was over 10 µM.

What about the IC50 (ADRB1; read-out: ADRB1 Antagonism IC50) of the same molecule?
The IC50 was over 10 µM.

And the EC50 (GR; read-out: GR Agonism EC50)?
Its EC50 is over 10 µM.

What about the IC50 (GR; read-out: GR Antagonism IC50) of the same molecule?
The IC50 was over 10 µM.

What about the IC50 (A549) of the same molecule?
The IC50 was 0.123 µM.

And the “fold difference of antiproliferative effect of SCR-7952 and AG-270” value (HCT116 MTAP−/− cells; HCT116 MTAP−/− cells, 34.4 vs. 300.4 nM)?
Its value is 8.7 fold.

And the IC50 (HCT116 MTAP−/− cells; Homo sapiens, HCT-116, 144 h, 6-day treatment, read-out: IC50, anti-proliferation HCT116 MTAP−/−)?
The IC50 was 0.0344 µM.

What about the IC50 (MIA PaCa-2) of the same molecule?
Its IC50 is 0.0197 µM.

And the IC50 (NCI-H838)?
Its IC50 is 0.0043 µM.

What about the IC50 [1] of the same molecule?
Its IC50 is 4.31 µM.

What about the IC50 (HCT116 WT cells) of the same molecule?
The IC50 was 0.488 µM.

What about the “tumor SDMA levels” value (SDMA) of the same molecule?
The value was “remarkable reduction”.

And the “fold more potent than AG-270 on MAT2A enzymatic activity” value (MAT2A)?
Its value is 3.7 fold.

And the IC50 (MAT2A; biochemical assay, read-out: IC50, MAT2A enzyme)?
The IC50 was 0.0187 µM.

And the Ki (MAT2A; in the presence of substrate methionine, Michaelis–Menten approach)?
Its Ki is 0.0145 µM.

And the α value (MAT2A; noncompetitive inhibition for methionine)?
Its α value is 1.193.

What about the EC50 (ADRB2; read-out: ADRB2 Agonism EC50) of the same molecule?
Its EC50 is over 10 µM.

What about the IC50 (ADRB2; read-out: ADRB2 Antagonism IC50) of the same molecule?
The IC50 was over 10 µM.

What about the EC50 (HRH2; read-out: HRH2 Agonism EC50) of the same molecule?
The EC50 was over 10 µM.

And the IC50 (HRH2; read-out: HRH2 Antagonism IC50)?
The IC50 was over 10 µM.

What about the AUC(0-t) ([2]; Nu/Nu, mouse, oral, plasma, HCT116 MTAP−/− xenograft mice, read-out: AUC0-24h total) of the same molecule?
The AUC(0-t) was 15800 ng·h/mL.

And the AUC0-24h free drug ([2]; calculated)?
Its AUC0-24h free drug is 1442 ng·h/mL.

And the EC50 (ADRA1A)?
Its EC50 is over 10 µM.

What about the IC50 (ADRA1A) of the same molecule?
The IC50 was over 10 µM.

And the EC50 (ADRA2A)?
Its EC50 is over 10 µM.

What about the IC50 (ADRA2A) of the same molecule?
The IC50 was over 10 µM.

What about the EC50 (HTR2A) of the same molecule?
Its EC50 is over 10 µM.

What about the IC50 (HTR2A) of the same molecule?
Its IC50 is over 10 µM.

What about the EC50 (OPRM1) of the same molecule?
The EC50 was over 10 µM.

And the IC50 (OPRM1)?
Its IC50 is over 10 µM.

What about the EC50 (HTR2B) of the same molecule?
Its EC50 is over 10 µM.

What about the IC50 (HTR2B) of the same molecule?
Its IC50 is over 10 µM.

And the IC50 (DAT)?
The IC50 was over 10 µM.

And the IC50 (SERT)?
Its IC50 is over 10 µM.

And the IC50 (NET)?
Its IC50 is over 10 µM.

And the EC50 (ADORA2A; read-out: ADORA2A Agonism EC50)?
Its EC50 is over 10 µM.

And the IC50 (ADORA2A; read-out: ADORA2A Antagonism IC50)?
Its IC50 is over 10 µM.

What about the EC50 (AR) of the same molecule?
The EC50 was over 10 µM.

What about the IC50 (AR) of the same molecule?
Its IC50 is over 10 µM.
